Data set [1] has as its system MES-induced seizures in male CD-1 mice. Description: Maximal electroshock (MES) induced seizure, latency (Example 3). The class given is in vivo, mouse. The protocol:
Food and water were available ad libitum.
Dosing solutions were prepared on each experiment day. […] VPA was prepared in saline (Vehicle 1). All solutions were protected from light. All compounds and vehicles were dosed at 10 ml/kg.
The MES test was carried out over two days with half of the mice from each treatment group being tested on each day. Mice were brought to the test room at least one hour before the start of the experiment. […] Mice were randomly assigned into one of the six treatment groups.
Animals were p.o. (oral) administered Compound 1 or 35% HPBCD (Vehicle 2) 30 minutes prior to the MES test or i.p. administered VPA or saline (Vehicle 1) 30 minutes prior to the MES test.
A Grass S88x (Grass Technologies of Astro-Med, Inc., West Warwick, RI) Stimulus Isolation Unit (A385, WPI Inc., USA) was set to deliver a 50 mA square-wave stimulus, with a 0.8 second duration, a pulse width of 10 msec, and a frequency of 50 Hz. A pair of custom stainless steel electrodes were soaked in 0.2% Agar, and then the subject received bilateral transauricular stimulation through ear-clip electrodes. During the stimulation, mice were manually restrained. They were then released into the observation cage for convulsion observation for 60 seconds immediately after stimulation. Each mouse was observed continuously by individuals blinded to treatment conditions and results were recorded.
Anti-seizure assessment endpoints were: (1) latency of hindlimb tonic flexion; (2) latency of hindlimb tonic extension; (3) total #hindlimb tonic flexions; (4) total #hindlimb tonic extensions; (5) latency to death; and (6) mortality rate.
Following the experiment, mice were anesthetized with CO2 and terminal plasma and brain tissue samples were collected. […] The supernatant plasma was pipetted into Eppendorf tubes.
An aliquot of 20 μL unknown sample, calibration standard, quality control, dilute quality control, single blank and double blank sample was added to a 1.5 mL tube. […]
From these fitted curves, ED50 and EC50 values were calculated.

The subject of data set [2] is various NaV isoforms and orthologs. The data set can be described thus: ATX-II induced persistent INa at NaV isoforms and orthologs. It is filed as cell-based. The settings on record: in words, FIG. 8C.
Data set [3] deals with MES-induced tonic hindlimb extension in male CD-1 mice. Description: MES acute seizure model, protection from tonic hindlimb extension (Example 9). The class given is in vivo, mouse. The method, then: Male CD-1 mice (Vital River, Beijing, China) approximately 6 weeks old were obtained for the study. Body weights were between 20.5 grams and 38.5 grams at the time the experiments were carried out. […] Food and water were available ad libitum.
(§1) Treatment was conducted using Compound 1 and 35% 2-hydroxypropyl-β-cyclodextrin (35% HPBCD, used as a negative control). Compound 1 stock solution was prepared fresh each experiment day in 35% HPBCD and protected from light. The stock solution was diluted with vehicle for lower doses.
Mice were brought to the test room at least one hour before the start of the experiment. Mice were administered valproate (VPA; 400 mg/kg, intraperitoneally); or vehicle (35% HPBCD, 10 mL/kg, intraperitoneally); or Compound 1 (0.3 mg/kg, 1 mg/kg, 3 mg/kg or 10 mg/kg, orally) 30 minutes prior to the MES test.
The electroshock apparatus was set to deliver a 50 mA square-wave stimulus, with a 0.8 second duration, a pulse width of 10 milliseconds, and a frequency of 50 Hz. A pair of custom stainless-steel electrodes were soaked in 0.2% agar, and then the subject received bilateral transauricular stimulation through ear-clip electrodes. During the stimulation, mice were manually restrained then released immediately into an observation cage where they were monitored continuously for 60 seconds by an observer blinded to treatment group.
Mice were anesthetized with CO2 and terminal plasma and brain tissue samples were collected. […] The supernatant plasma was pipetted into Eppendorf tubes.
All statistical analyses were conducted using GraphPad Prism 9.3. Means were combined and standard error was calculated using the Satterthwaite Approximation to combine standard deviations. […] ED50 and EC50 values were calculated from these fit curves.

Data set [4] concerns the target T1, human NaV1.6 (Homo sapiens, UniProt Q9UQD0).
T1 construct: HEK-293 cell lines stably expressing human NaV1.6 (NP_055006) were used; expressed in transfected cells
The data set can be described thus: Peak INa use-dependent block (UDB-10 Hz), automated patch clamp in HEK cells. It is filed as cell-based. A general note: In patch-clamp work, channel activity is measured electrically.

A short description of data set [5]: in vivo. The settings on record: rat.
Data set [6] can be described thus: Spontaneous locomotor activity (sLMA) (Example 8). It is filed as in vivo, mouse. Particulars: male, CD-1, mouse, in vivo, po, 30 min before test, distance travelled. The method, then:
Male CD-1 mice (Vital River, Beijing, China) approximately 6 weeks old were used for the study. Body weights were between 25 g and 35 g at the time of experiment.
as §1
The spontaneous locomotor activity (sLMA) test for each study was carried out over three days, with mice from each treatment group tested each day. The treatment groups included mice dosed with vehicle (35% HPBCD) and with Compound 1 at the dose of 3 mg/kg, 5.6 mg/kg, 10 mg/kg and 20 mg/kg. Mice were randomly assigned into one of the treatment groups.
A single dose of Compound 1 (3 mg/kg, 5.6 mg/kg, 10 mg/kg and 20 mg/kg) or vehicle (35% HPBCD) was administered to mice via oral gavage 30 minutes prior to testing. Immediately prior to conducting the sLMA test, a brief neurological assessment was performed. Each animal was visually assessed for sedation and ataxia.
Activity was recorded by overhead cameras and was analyzed offline. Video tracking analysis software was used to determine total distance travelled in millimeters. Distance travelled was also calculated in 5-minute bins.
All statistical analyses were conducted using GraphPad Prism 9.3. Means were combined and standard error was calculated using the Satterthwaite Approximation to combined standard deviations. […] TD50 and TC50 values were calculated from these fit curves.

The structures appear in SMILES notation. Entries after “also recorded” stand apart in the source; their conditions may differ.

T1 sequence (Q9UQD0 whole entry): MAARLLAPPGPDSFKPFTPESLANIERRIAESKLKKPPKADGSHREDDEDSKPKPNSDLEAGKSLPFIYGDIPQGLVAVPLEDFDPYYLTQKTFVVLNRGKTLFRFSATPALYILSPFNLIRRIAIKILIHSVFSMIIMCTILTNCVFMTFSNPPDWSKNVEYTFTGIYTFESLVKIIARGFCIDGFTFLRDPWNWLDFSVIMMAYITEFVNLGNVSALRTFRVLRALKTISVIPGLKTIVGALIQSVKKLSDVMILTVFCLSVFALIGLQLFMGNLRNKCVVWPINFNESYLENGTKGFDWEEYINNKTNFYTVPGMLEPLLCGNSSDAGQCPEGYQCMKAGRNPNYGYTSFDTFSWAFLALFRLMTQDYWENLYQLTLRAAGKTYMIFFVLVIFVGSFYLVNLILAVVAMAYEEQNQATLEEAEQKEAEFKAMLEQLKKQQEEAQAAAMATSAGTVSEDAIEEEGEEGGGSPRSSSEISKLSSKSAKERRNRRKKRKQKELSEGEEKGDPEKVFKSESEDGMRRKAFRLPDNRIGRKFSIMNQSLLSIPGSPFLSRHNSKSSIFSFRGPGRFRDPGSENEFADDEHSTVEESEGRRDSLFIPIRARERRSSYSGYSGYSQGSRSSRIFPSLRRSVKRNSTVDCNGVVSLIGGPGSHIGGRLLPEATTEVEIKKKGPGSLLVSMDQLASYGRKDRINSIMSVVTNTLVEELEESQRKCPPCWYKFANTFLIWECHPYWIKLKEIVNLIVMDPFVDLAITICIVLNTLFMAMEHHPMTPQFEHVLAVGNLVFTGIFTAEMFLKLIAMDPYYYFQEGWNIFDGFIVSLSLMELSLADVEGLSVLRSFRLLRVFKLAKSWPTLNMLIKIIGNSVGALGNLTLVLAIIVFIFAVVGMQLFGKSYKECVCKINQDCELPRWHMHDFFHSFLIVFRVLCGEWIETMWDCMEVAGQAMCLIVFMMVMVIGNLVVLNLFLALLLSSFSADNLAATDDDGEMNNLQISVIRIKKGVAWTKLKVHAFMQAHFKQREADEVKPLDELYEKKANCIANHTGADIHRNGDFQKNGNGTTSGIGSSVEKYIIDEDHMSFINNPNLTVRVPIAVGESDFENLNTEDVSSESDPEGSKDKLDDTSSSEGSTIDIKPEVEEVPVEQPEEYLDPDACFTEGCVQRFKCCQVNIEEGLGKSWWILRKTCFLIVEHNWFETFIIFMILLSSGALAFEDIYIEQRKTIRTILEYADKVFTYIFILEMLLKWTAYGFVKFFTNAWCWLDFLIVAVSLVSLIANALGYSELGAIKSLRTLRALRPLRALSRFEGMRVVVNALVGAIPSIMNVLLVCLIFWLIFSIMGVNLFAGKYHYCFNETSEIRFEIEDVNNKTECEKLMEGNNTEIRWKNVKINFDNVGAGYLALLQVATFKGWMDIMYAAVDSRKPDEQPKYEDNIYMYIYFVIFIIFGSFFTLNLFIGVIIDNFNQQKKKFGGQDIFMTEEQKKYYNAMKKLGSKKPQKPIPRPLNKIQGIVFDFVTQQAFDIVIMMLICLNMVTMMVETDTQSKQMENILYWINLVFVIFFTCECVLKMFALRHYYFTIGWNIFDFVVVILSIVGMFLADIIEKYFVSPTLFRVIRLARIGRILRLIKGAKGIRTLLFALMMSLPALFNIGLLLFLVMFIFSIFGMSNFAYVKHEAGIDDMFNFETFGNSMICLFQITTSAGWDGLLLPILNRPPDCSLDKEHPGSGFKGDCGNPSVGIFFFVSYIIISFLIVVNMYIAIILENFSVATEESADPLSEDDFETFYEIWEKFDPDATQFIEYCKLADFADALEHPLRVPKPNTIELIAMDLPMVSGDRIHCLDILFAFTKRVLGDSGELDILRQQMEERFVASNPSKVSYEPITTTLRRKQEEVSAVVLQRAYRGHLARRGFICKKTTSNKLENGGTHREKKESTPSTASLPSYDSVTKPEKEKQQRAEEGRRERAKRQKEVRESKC

Turning to `CCOC(F)(F)c1nnc2ccc(-c3cnc(OCC(F)(F)F)c(F)c3)cn12` [Compound 1], the “latency to seizures following bilateral transauricular stimulation” value in data set [1] (1 mg/kg p.o.) was “significantly increased latency to seizures”. For the same molecule, in data set [1] (10 mg/kg), the “block of evoked seizures (MES)” value is listed as “completely blocked evoked seizures”. The ED50 – broadly, the dose that gives a 50% effect, or the effect in half of the subjects – in data set [1] (Mus musculus, po, 30 min before MES, latency to seizures) is 0.67 mg/kg; in data set [3] (Mus musculus, administered dose), 0.42 mg/kg. Further, the “inhibition of ATX-II induced persistent INa at multiple NaV isoforms and orthologs” value in data set [2] was “inhibits ATX-II induced persistent INa expressed by multiple NaV isoforms and orthologs”. Further, the “sedation or ataxia before MES test” value in data set [3] (10 mg/kg orally) is listed as “some mice showed sedation or ataxia; also recorded: six of thirty mice showed mild to moderate sedation”; in data set [3] (0.3 to 3 mg/kg orally), “No sedation or ataxia was observed; also recorded: No sedation was observed”. In data set [4] (HEK293, fitted maximum of Hill equation, read-out: Peak INa UDB-10 Hz Max effect), the Emax came to 100%. Moreover, in data set [4] (TB IC50 / UDB IC50), the “UDB preference to TB” value is 44 ×. Also, the “Ratio to Pers. INa (Peak INa UDB-10 Hz)” value in data set [4] (UDB IC50 / persistent INa IC50) is on record as 1.6. Besides, the “activity dependent block of peak INa” value in data set [4] (in words, FIGS. 7A-7C) is “enhanced activity dependent inhibition of peak INa”. In addition, in data set [4] (use-dependent block 10 Hz), the “Peak INa UDB-10 Hz Hill slope” value is on record as “(0.7)”. Also, in data set [4] (use-dependent block, Vm -120 mV, 10 Hz), the 50% inhibitory concentration (IC50) (commonly the point on the concentration scale where inhibition reaches its midpoint) turned out to be 200 nM. In addition, in data set [5], the AUC(0-inf) (in general, total exposure, with the tail of the curve extrapolated) amounted to 7500 ng·h/mL. Moreover, in data set [6], the TD50 (in general, the dose at which the toxic effect under study appears in half of the subjects) turned out to be 10.4 mg/kg.

For the origin of these results see patent publication US20250041284A1, “TREATMENT OF NEUROLOGICAL DISORDERS” (Praxis Precision Medicines, Inc., priority 2022, published 2025).
